{
  "source": "patent US11485742B2",
  "about": "“2-azaspiro[3.4]octane derivatives as M4 agonists” (NOVARTIS AG, priority 2019, dated 2022)",
  "origin": "cited, not measured here",
  "system": "hyperactivity in mice induced by the stimulant d-amphetamine",
  "conditions": "general statement on clinically efficacious muscarinic anti-psychotics; cited from earlier work",
  "data": [
    {"smiles": "CCCCCCOc1nsnc1C1=CCCN(C)C1", "note": "[xanomeline]", "values": [
      {"measurement": "activity in the amphetamine induced hyperlocomotion assay", "value": "active"}
    ]}
  ]
}
